Data set [1] in a line: Dissociation constant, pKa of the compound. It counts as physicochemical.
Data set [2] in a line: Distribution coefficient, log D at pH 7.4. The following applies: octanol/water.
Data set [3] relates to Gastric gland. The experiment in a line: Inhibition of gastric acid secretion in rabbit gastric gland assessed as accumulation of 14C]-[…]. It counts as functional, tissue-based. The conditions noted are these: Oryctolagus cuniculus.
Data set [4] is described as follows: Inhibition of hog gastric mucosa H/+K+ ATPase. It counts as tissue-based.

Experimental findings from ChEMBL document CHEMBL1143142, “5-Substituted 1H-pyrrolo[3,2-b]pyridines as inhibitors of gastric acid secretion” (Bioorg Med Chem, 2008) are described below.

As to `Cc1cccc(C)c1CNc1cc(C(=O)N(C)C)nc2c(C)c(C)n(C)c12`, in data set [1], the pKa was 7.13. In data set [2], this compound had a logD of 3.53. Moreover, the half-inhibitory concentration (IC50) in data set [3] is 15.8 µM. In addition, the “Log IC50” value in data set [4] was -4.6.

In turn, `CNC(=O)c1cc(NCc2c(C)cccc2C)c2[nH]c(C)cc2n1` came in with a pKa in data set [1] of 7.33. For the same compound, in data set [2], the logD came out at 2.96. The IC50 in data set [3] is 1.58 µM. Also, in data set [4], the “Log IC50” value is -5.5.

Regarding `CNC(=O)c1cc(NCc2c(C)cccc2C)c2[nH]c(C)c(Br)c2n1`, in data set [1], the pKa worked out at 7.39. Moreover, in data set [3], the half-inhibitory concentration (IC50) is 5.01 µM. The “Log IC50” value in data set [4] is less than -4.

In data set [1], `CCc1cccc(C)c1CNc1cc(C(=O)N(C)C)nc2c(CO)c(C)[nH]c12` returned a pKa of 7.07. The compound also returned a log distribution coefficient (logD) in data set [2] of 3.27. For the same compound, the concentration for half-maximal inhibition (IC50) in data set [3] is 50.1 µM. Further, the “Log IC50” value in data set [4] is recorded as -5.7.

With `CCc1cccc(C)c1CNc1cc(C(=O)N(C)C)nc2c(C)c(C)[nH]c12`, the pKa in data set [1] came out at 7.57. The same compound registered a logD in data set [2] of 4.6. Also, the IC50 in data set [3] was 0.251 µM. In addition, the “Log IC50” value in data set [4] was -6.6.

Take `Cc1cccc(C)c1CNc1cc(C(=O)N(C)C)nc2c(C)c(C)[nH]c12`: in data set [1], the pKa amounted to 7.56. For the same compound, the IC50 in data set [3] is 0.251 µM. Also, the “Log IC50” value in data set [4] is listed as -6.9.

For `CCc1cccc(C)c1CNc1cc(C(=O)N(C)C)nc2c(Br)c(C)[nH]c12`, in data set [1], the pKa came out at 5.84. In data set [2], this compound gave a log distribution coefficient (logD) greater than 4.8. Also, the IC50 in data set [3] was 10 µM. Moreover, in data set [4], the “Log IC50” value is on record as -5.

Regarding `Cc1cccc(C)c1CNc1cc(C(=O)N(C)C)nc2c(Br)c(C)[nH]c12`, the pKa in data set [1] was 6.02. Besides, in data set [2], the logD is greater than 4.8. Further, the IC50 in data set [3] is 3.16 µM. For the same compound, the “Log IC50” value in data set [4] is reported as -5.

Turning to `Cc1cc2nc(C(=O)N(C)C)cc(NCc3c(C)cccc3C)c2[nH]1`, the pKa in data set [1] came to 7.3. The log distribution coefficient (logD) in data set [2] is 3.62. The half-maximal inhibitory concentration (IC50) in data set [3] is 2.51 µM. The “Log IC50” value in data set [4] is on record as -6.1.

On to `Cc1cccc(C)c1CNc1cc(C(=O)N(C)C)nc2c(CO)c(C)[nH]c12`, for which, in data set [1], the pKa amounted to 7.2. Besides, in data set [2], the logD was found to be 2.95. Also, in data set [3], the IC50 is 63.1 µM. Further, the “Log IC50” value in data set [4] is listed as -5.6.

In the case of `Cc1cccc(C)c1CNc1cc(C(=O)N(C)C)nc2c(CO)c(C)n(Cc3ccccc3)c12`, in data set [1], the pKa was determined as 6.52. This compound registered a logD in data set [2] of 3.87. In data set [3], the IC50 was 10 µM. Moreover, the “Log IC50” value in data set [4] is on record as -4.6.

On to `CCc1cccc(C)c1CNc1cc(C(=O)N(C)C)nc2cc(C)[nH]c12`, for which the pKa in data set [1] was 7.39. The compound further showed a logD in data set [2] of 4.1. In data set [3], the IC50 was 3.16 µM. Further, the “Log IC50” value in data set [4] is given as -5.9.

Turning to `Cc1cccc(C)c1CNc1cc(C(=O)N(C)C)nc2c(C)c(C)n(Cc3ccccc3)c12`, the pKa in data set [1] came out at 6.86. The same compound yielded a logD in data set [2] of 5.2. Also, the IC50 in data set [3] was 1 µM. Besides, in data set [4], the “Log IC50” value is on record as -5.1.

Regarding `Cc1cccc(C)c1CNc1cc(C(=O)N(C)C)nc2c(C)c(C)n(CC(C)O)c12` (centres undefined), the pKa in data set [1] was determined as 7.19. This compound had a logD in data set [2] of 3.4. Moreover, in data set [3], the concentration for half-maximal inhibition (IC50) was 3.98 µM. Also, in data set [4], the “Log IC50” value is recorded as -4.8.

A word on the pKa: it is the negative logarithm of the acid dissociation constant. A high value points to a group that holds its proton tightly. One may read the logD as the decadic logarithm of the distribution of all forms, ionised or not, between an organic phase and buffer at a given pH. Lower therefore signals a more hydrophilic compound. For orientation: IC50 means the concentration that gives 50% inhibition.
